± gives the expanded uncertainty stated by the source.
Columns and labels:
[1] = Molar enthalpy of transition or fusion; details: Crystal; DSC
[2] = Crystal

For CCNC(=S)NCC [N,N'-diethylthiourea], the “Molar enthalpy of transition or fusion” value [1] was 3.75 ± 0.206 kcal/mol, the mass density ([2]; 293 K, 101.33 kPa, X-ray diffraction) was 1120 ± 5.8 kg/m3 and the Triple point temperature ([2]; DSC) was 351.28 ± 0.87 K.

— the NIST ThermoML archive (doi:10.1021/acs.jced.9b00854)
